This note sets out measurements from patent US20220088195A1, “Prevention or mitigation of T-cell bispecific antibody-related adverse effects” (Hoffmann-La Roche Inc., priority 2020, published 2022).

The test system of experiment [1] is CD4+ and CD8+ T cells. The experiment in a line: T cell degranulation, CD107a staining by FACS at 24h, SKM-1 + HLA-A2 WT-1-TCB. It is filed as cell-based, human. The protocol:
FIG. 13. In vitro killing assay set-up and timelines to assess T cell degranulation. PBMCs were co-cultured with SKM-1 target cells (E:T=5:1) and 10 nM HLA-A2 WT-1-TCB in the presence and absence of 100 nM dasatinib. Golgistop and Golgiplug (both BD) and CD107a antibody were added 3 hours after activation with TCB to prevent cytokine externalization.
FIG. 14. CD107a+ populations among CD4+ and CD8+ T cells in the presence and absence of dasatinib for one representative donor, in the assay of FIG. 13. Expression of CD107a on CD4+ and CD8+ T cells was measured by FACS at 24h.
FIG. 15. Percentages of CD107a+ cells among CD4+ (A) and CD8+ (B) T cells in the presence and absence of dasatinib in the assay of FIG. 13. Expression of CD107a on CD4+ and CD8+ T cells was measured by FACS at 24h. Mean of 3 donors+/−SD.
To assess whether dasatinib can efficiently prevent TCB-mediated target cell killing by activated T cells, we set up an in vitro killing assay with two stimulation steps, mimicking an ON/OFF switch. During the first stimulation, PBMCs were activated on carboxyfluorescein succinimidyl ester (CFSE)-labelled SKM-1 tumors cells with HLA-A2 WT-1-TCB in the absence of dasatinib (ON). During the second stimulation, activated PBMCs together with dead CFSE labelled SKM-1 tumors cells were washed and re-stimulated by HLA-A2 WT-1-TCB on fresh CTV labelled SKM-1 tumor cells in the presence of 100 nM dasatinib (OFF). The use of CFSE and CTV labelled SKM-1 tumors allowed to differentiate tumor cells used for first and second stimulation by flow cytometry (FIG. 8). […] Consistently, T cells were activated and functional before the addition of dasatinib in the system. 87.6% of CTV labelled SKM-1 cells were alive upon second stimulation with 10 nM HLA-A2 WT-1 TCB in the presence of 100 nM dasatinib, but only 2.04% of CTV labelled SKM-1 tumor cells were alive upon restimulation with 10 nM HLA-A2 WT-1-TCB in the absence of dasatinib (FIG. 10). […]

For experiment [2], the system named is CD20+ B cells. The experiment in a line: CD19-TCB dependent B cell depletion in blood of humanized NSG mice. It counts as in vivo. Particulars: 0.5 mg/kg CD19-TCB i.v. + 50 mg/kg dasatinib p.o. twice per day. The protocol: FIG. 32. Timelines and dosing schedule of in vivo experiment assessing effect of dasatinib (50 mg/kg) on CD19-TCB induced cytokine release and B cell depletion in humanized NSG mice. Humanized NSG mice were co-treated with 0.5 mg/kg CD19-TCB (i.v.) and 50 mg/kg dasatinib (p.o.) twice per day. Blood was collected by tail vein bleeding at 1.5 hrs, 6 hrs and 48 hrs after treatment with CD19-TCB. At 72 hrs, blood was collected retro-orbitally, before the termination of the experiment. N=4 mice per group.
FIG. 33. […] Representative flow cytometry dot plots of CD20+ B cells gated among human CD45+ cells in the blood (48 hrs) of animals treated with vehicle (A), 0.5 mg/kg CD19-TCB (B), or 0.5 mg/kg CD19-TCB and 50 mg/kg dasatinib (C).
FIG. 34. […] CD20+ B cell count was measured by flow cytometry in the blood of the animals from the experiment described in FIG. 32 at 48 hrs (A) and 72 hrs (B). Mean of n=4 mice+/−SEM. One way ANOVA, Kruskal Wallis test, p-value: 0.1234 (ns), 0.0332 (*), 0.0021 (**), 0.0001 (***), <0.0001 (****).
To verify whether dasatinib can prevent CD19-TCB-induced B cell depletion and cytokine release in vivo, humanized NSG mice were either treated with 0.5 mg/kg CD19-TCB or co-treated with 0.5 mg/kg CD19-TCB and 50 mg/kg dasatinib as illustrated in FIG. 32. To best mimick the pharmacodynamic profile of dasatinib in the clinic and to verify whether the resulting exposure would be sufficient to prevent CD19-TCB-induced T cell cytotoxicity and cytokine release, dasatinib was given per os twice per day.
At 48 hrs and 72 hrs, mice were bled and the CD20+ B cell count was measured by flow cytometry (FIG. 33). […] The half-life of dasatinib in blood of mice being around 6 hrs, the exposure of dasatinib was probably not sufficient to durably prevent CD19-TCB-induced T cell cytotoxicity, leading to partial activity of CD19-TCB.

The test system of experiment [3] is SUDLH-8 tumor cells. Briefly: Killing assay, PBMCs + CTV labelled SUDLH-8 cells + CD19-TCB, flow cytometry 24 hrs. The settings on record: 100 nM dasatinib, monohydrate. It is filed as cell-based, human. The protocol: FIG. 26. In vitro killing assay set-up. PBMCs were co-cultured with CellTrace™ Violet (CTV)-labelled SUDLH-8 tumor cells (E:T=10:1) and escalating concentrations of CD19-TCB in the presence and absence of 100 nM dasatinib.
FIG. 27. […] The killing of SUDLH-8 tumor cells was measured by flow cytometry using a Live Dead Near InfraRed (NIR) dye allowing for exclusion of dead cells (24 hrs) in the assay described in FIG. 26. Mean of n=3 donors+SD. One way ANOVA, Friedman test, p-value: 0.1234 (ns), 0.0332 (*), 0.0021 (**), 0.0001 (***), <0.0001 (****).
The killing of CTV labelled SUDLH-8 cells was measured by flow cytometry using a Live/Dead Near Infra Red (NIR) dye. […] The expression of CD69 and CD25 were measured on CD4+ (FIG. 28) and CD8+(FIG. 29) T cells by flow cytometry as a readout for T cell activation. […] Lastly, the cytokine levels were analyzed in the supernatants of the assay by Luminex to evaluate the effect of dasatinib on CD19-TCB-induced cytokine release (FIGS. 30 and 31).

Setting [4] is: 10 nM HLA-A2 WT-1-TCB + 100 nM dasatinib, 24h, one representative donor.

SMILES strings stand for the structures.

For the molecule `Cc1nc(Nc2ncc(C(=O)Nc3c(C)cccc3Cl)s2)cc(N2CCN(CCO)CC2)n1` [dasatinib, N-(2-chloro-6-methylphenyl)-2-[[6-[4-(2-hydroxyethyl)-1-piperazinyl]-2-methyl-4-pyrimidinyl]amino]-5-thiazole carboxamide monohydrate], the “cells positive for CD107a among CD4+ T cells” value in experiment [1] (setting [4]) stood at 1.22%. In addition, the “cells positive for CD107a among CD8+ T cells” value in experiment [1] (setting [4]) stood at 2.08%. Besides, the “TCB-induced CD107a expression on CD4+ and CD8+ T cells” value in experiment [1] (100 nM dasatinib, 3 donors) was “prevented”. The “killing of CD20+ B cells by CD19-TCB (B cell count in blood)” value is on record as “prevents CD19-TCB dependent B cell depletion until 48 hrs post treatment” in experiment [2] (48 hrs, listed as Dasatinib, monohydrate); “prevented killing” in experiment [2] (48 hrs, monohydrate); “partially restored” in experiment [2] (72 hrs). For the same molecule, the “killing of SUDLH-8 tumor cells by CD19-TCB” value in experiment [3] is “prevented killing”.
